Source: ChEMBL document CHEMBL1122832, “4-substituted 5-[m-(trifluoromethyl)phenoxy]primaquine analogues as potential antimalarial agents” (1985)
Values joined by “and” are separate entries in the source; they are usually repeats but may differ in a detail not shown here. Equal entries are not always repeated.

What was measured:
Type in all cases: functional
Plasmodium cynomolgi [1] = test: Antimalarial activity against Plasmodium cynomolgi infected Rhesus monkeys (Macaca mulatta) at 1.0 mg/kg; relapses
Mus musculus [2] = test: Antimalarial activity against Plasmodium berghei yoelii in mice (Mus musculus) at a dose of 160 mg/kg administered subcutaneously and activity expressed as cures; 10/10; conditions: route subcutaneous
Mus musculus [3] = test: Antimalarial activity against Plasmodium berghei yoelii in mice (Mus musculus) at a dose of 2.5 mg/kg administered subcutaneously and activity expressed as cures; 0/5; conditions: route subcutaneous
Mus musculus [4] = test: Antimalarial activity against Plasmodium berghei in mice (Mus musculus) at a dose of 320 mg/kg and activity expressed as number cures surviving 60 days
Mus musculus [5] = test: Mean survival time of mice(Plasmodium berghei) at a dose of 5 mg/kg, total no. of mice = 5
Mus musculus [6] = test: Antimalarial activity against Plasmodium berghei yoelii in mice (Mus musculus) at a dose of 40 mg/kg administered by peroral and activity expressed as cures; 4/5; conditions: route oral
Mus musculus [7] = test: Mean survival time of mice(Plasmodium berghei) at a dose of 10 mg/kg, total no. of mice = 5
Mus musculus [8] = test: Antimalarial activity against Plasmodium berghei yoelii in mice (Mus musculus) at a dose of 40 mg/kg administered by subcutaneous and activity expressed as cures; 12/15
Mus musculus [9] = test: Mean survival time of mice(Plasmodium berghei) at a dose of 20 mg/kg, total no. of mice = 5
Mus musculus [10] = test: Antimalarial activity against Plasmodium berghei yoelii in mice (Mus musculus) at a dose of 2.5 mg/kg administered by peroral and activity expressed as cures; 0/5; conditions: route oral
Mus musculus [11] = test: Antimalarial activity against Plasmodium berghei in mice (Mus musculus) at a dose of 160 mg/kg and activity expressed as number cures surviving 60 days
Mus musculus [12] = test: Antimalarial activity against Plasmodium berghei yoelii in mice (Mus musculus) at a dose of 10 mg/kg administered subcutaneously and activity expressed as cures; 9/15; conditions: route subcutaneous
Mus musculus [13] = test: Antimalarial activity against Plasmodium berghei in mice (Mus musculus) at a dose of 80 mg/kg and activity expressed as number cures surviving 60 days
Mus musculus [14] = test: Antimalarial activity against Plasmodium berghei in mice (Mus musculus) at a dose of 640 mg/kg and activity expressed as toxic deaths on days 2-5
Mus musculus [15] = test: Antimalarial activity against Plasmodium berghei yoelii in mice (Mus musculus) at a dose of 10 mg/kg administered perorally and activity expressed as cures; 0/15; conditions: route oral
Plasmodium cynomolgi [16] = test: Antimalarial activity against Plasmodium cynomolgi infected Rhesus monkeys (Macaca mulatta) at 1.0 mg/kg;cured 0 of 2
Mus musculus [17] = test: Mean survival time of mice(Plasmodium berghei) at a dose of 40 mg/kg, total no. of mice = 5
Mus musculus [18] = test: Antimalarial activity against Plasmodium berghei in mice (Mus musculus) at a dose of 160 mg/kg and activity expressed as toxic deaths on days 2-5
Mus musculus [19] = test: Mean survival time of mice(Plasmodium berghei) at a dose of 80 mg/kg, total no. of mice = 5
Mus musculus [20] = test: Antimalarial activity against Plasmodium berghei in mice (Mus musculus) at a dose of 320 mg/kg and activity expressed as toxic deaths on days 2-5
Plasmodium cynomolgi [21] = test: Antimalarial activity against Plasmodium cynomolgi infected Rhesus monkeys (Macaca mulatta) at 1.0 mg/kg; cured 1 of 2
Plasmodium cynomolgi [22] = test: Antimalarial activity against Plasmodium cynomolgi in Rhesus monkeys (Macaca mulatta) at 0.316 mg/kg; cured 0 of 2
Plasmodium cynomolgi [23] = test: Antimalarial activity against Plasmodium cynomolgi infected Rhesus monkeys (Macaca mulatta) at 0.1 mg/kg; cured 0 of 2
Mus musculus [24] = test: Antimalarial activity against Plasmodium berghei in mice (Mus musculus) at a dose of 640 mg/kg and activity expressed as number cures surviving 60 days
Mus musculus [25] = test: Antimalarial activity against Plasmodium berghei yoelii in mice (Mus musculus) at a dose of 160 mg/kg administered subcutaneously and activity expressed as cures; […]; conditions: route subcutaneous
Mus musculus [26] = test: Antimalarial activity against Plasmodium berghei yoelii in mice (Mus musculus) at a dose of 40 mg/kg administered subcutaneously and activity expressed as cures; 9/10; conditions: route subcutaneous
Mus musculus [27] = test: Antimalarial activity against Plasmodium berghei in mice (Mus musculus) at a dose of 20 mg/kg and activity expressed as number cures surviving 60 days
Plasmodium cynomolgi [28] = test: Antimalarial activity as relapses in Plasmodium cynomolgi infected Rhesus monkeys (Macaca mulatta) at 0.1 mg/kg
Mus musculus [29] = test: Antimalarial activity against Plasmodium berghei yoelii in mice (Mus musculus) at a dose of 10 mg/kg administered by peroral and activity expressed as cures; 5/5; conditions: route oral
Mus musculus [30] = test: Antimalarial activity against Plasmodium berghei in mice (Mus musculus) at a dose of 40 mg/kg and activity expressed as number cures surviving 60 days
Mus musculus [31] = test: Antimalarial activity against Plasmodium berghei yoelii in mice (Mus musculus) at a dose of 10 mg/kg administered by subcutaneous and activity expressed as cures; 8/10
Plasmodium cynomolgi [32] = test: Antimalarial activity against Plasmodium cynomolgi infected Rhesus monkeys (Macaca mulatta) at 1.0 mg/kg; cured 2 of 2
Plasmodium cynomolgi [33] = test: Antimalarial activity against Plasmodium cynomolgi infected Rhesus monkeys (Macaca mulatta) at 0.316 mg/kg; relapses
Mus musculus [34] = test: Antimalarial activity against Plasmodium berghei yoelii in mice (Mus musculus) at a dose of 2.5 mg/kg administered by subcutaneous and activity expressed as cures; 1/5
Plasmodium cynomolgi [35] = test: Antimalarial activity against Plasmodium cynomolgi infected Rhesus monkeys (Macaca mulatta) at 0.316 mg/kg; cured 1 of 2
Plasmodium cynomolgi [36] = test: Antimalarial activity against Plasmodium cynomolgi infected Rhesus monkeys (Macaca mulatta) at 0.316 mg/kg dose; Cured 2 of 2
Plasmodium cynomolgi [37] = test: Antimalarial activity against Plasmodium cynomolgi infected Rhesus monkeys (Macaca mulatta) at 0.1 mg/kg; cured 0 of 1
Plasmodium cynomolgi [38] = test: Antimalarial activity against Plasmodium cynomolgi infected Rhesus monkeys (Macaca mulatta) at 1.0 mg/kg; cured 0 of 1
Mus musculus [39] = test: Antimalarial activity against Plasmodium berghei yoelii in mice (Mus musculus) at a dose of 160 mg/kg administered by subcutaneous and activity expressed as toxic
Mus musculus [40] = test: Antimalarial activity against Plasmodium berghei yoelii in mice (Mus musculus) at a dose of 10 mg/kg administered by peroral and activity expressed as cures; 3/10; conditions: route oral
Mus musculus [41] = test: Antimalarial activity against Plasmodium berghei yoelii in mice (Mus musculus) at a dose of 160 mg/kg administered subcutaneously and activity expressed as cures; conditions: route subcutaneous
Mus musculus [42] = test: Antimalarial activity against Plasmodium berghei yoelii in mice (Mus musculus) at a dose of 2.5 mg/kg and activity expressed as toxic
Mus musculus [43] = test: Antimalarial activity against Plasmodium berghei in mice (Mus musculus) at a dose of 64 mg/kg and activity expressed as toxic deaths on days 2-5
Mus musculus [44] = test: Antimalarial activity against Plasmodium berghei yoelii in mice (Mus musculus) at a dose of 40 mg/kg administered perorally and activity expressed as cures; conditions: route oral
Mus musculus [45] = test: Mean survival time of mice(Plasmodium berghei) at a dose of 160 mg/kg, total no. of mice = 5
Mus musculus [46] = test: Antimalarial activity against Plasmodium berghei yoelii in mice (Mus musculus) at a dose of 2.5 mg/kg administered by subcutaneous and activity expressed as cures; 0/10
Mus musculus [47] = test: Antimalarial activity against Plasmodium berghei yoelii in mice (Mus musculus) at a dose of 2.5 mg/kg administered perorally and activity expressed as cures; 3/10; conditions: route oral
Mus musculus [48] = test: Mean survival time of mice(Plasmodium berghei) at a dose of 320 mg/kg, total no. of mice = 5
Mus musculus [49] = test: Antimalarial activity against Plasmodium berghei yoelii in mice (Mus musculus) at a dose of 40 mg/kg administered by subcutaneous and activity expressed as cures; 14/15
Mus musculus [50] = test: Antimalarial activity against Plasmodium berghei yoelii in mice (Mus musculus) at a dose of 10 mg/kg administered by subcutaneous and activity expressed as cures; 10/15
Mus musculus [51] = test: Antimalarial activity against Plasmodium berghei yoelii in mice (Mus musculus) at a dose of 10 mg/kg administered subcutaneously and activity expressed as cures; 6/25; conditions: route subcutaneous
Mus musculus [52] = test: Antimalarial activity against Plasmodium berghei yoelii in mice (Mus musculus) at a dose of 160 mg/kg administered by subcutaneous and activity expressed as cures; 2/25
Mus musculus [53] = test: Antimalarial activity against Plasmodium berghei yoelii in mice (Mus musculus) at a dose of 40 mg/kg administered subcutaneously and activity expressed as cures; 5/25; conditions: route subcutaneous
Plasmodium cynomolgi [54] = test: Antimalarial activity against Plasmodium cynomolgi infected Rhesus monkeys (Macaca mulatta) at 0.1 mg/kg; relapses in 2 of 2
Mus musculus [55] = test: Mean survival time of mice(Plasmodium berghei) at a dose of 640 mg/kg, total no. of mice = 5

`COc1cc(NC(C)CCCN)c2nccc(C(OC)OC)c2c1Oc1cccc(C(F)(F)F)c1` (stereo unspecified) was tested, and the Relapses (Plasmodium cynomolgi [1]) was 24 and 44, the Cures (Mus musculus [2]) was 10 and the Cures (Mus musculus [3]) was 0. For the same molecule, the Cures (Mus musculus [4]) was 2, the “Delta MST” value (Mus musculus [5]) was 1.9 and the Cures (Mus musculus [6]) was 4. For the same molecule, the “Delta MST” value (Mus musculus [7]) was 2.5, the Cures (Mus musculus [8]) was 12 and the “Delta MST” value (Mus musculus [9]) was 5.5. For the same molecule, the Cures (Mus musculus [10]) was 0, the Cures (Mus musculus [11]) was 3 and the Cures (Mus musculus [12]) was 9. For the same molecule, the Cures (Mus musculus [13]) was 1, the Toxic (Mus musculus [14]) was 5 and the Cures (Mus musculus [15]) was 0. The Cures (Plasmodium cynomolgi [16]) was 0 and the “Delta MST” value (Mus musculus [17]) was 8.5.
For `COc1cc(NC(C)CCCN)c2ncccc2c1.O=P(O)(O)O.O=P(O)(O)O` (stereo unspecified) [PRIMAQUINE PHOSPHATE], the Toxic (Mus musculus [18]) was 2, the “Delta MST” value (Mus musculus [19]) was 9 and the Toxic (Mus musculus [20]) was 5. For the same molecule, the Toxic (Mus musculus [14]) was 5.
For `COc1cc(NC(C)CCCN)c2ncccc2c1` (stereo unspecified) [PRIMAQUINE], the Cures (Plasmodium cynomolgi [21]) was 1, the Cures (Plasmodium cynomolgi [22]) was 0 and the Cures (Plasmodium cynomolgi [23]) was 0.
`COCc1ccnc2c(NC(C)CCCN)cc(OC)c(Oc3cccc(C(F)(F)F)c3)c12` (stereo unspecified) gave a Cures (Mus musculus [24]) of 2, a Cures (Mus musculus [25]) of 5 and a Cures (Mus musculus [4]) of 4. The “Delta MST” value (Mus musculus [5]) was 2.8, the Cures (Mus musculus [26]) was 9 and the Cures (Mus musculus [6]) was 4. The “Delta MST” value (Mus musculus [7]) was 6.6, the Cures (Mus musculus [27]) was 1 and the Relapses (Plasmodium cynomolgi [28]) was 8. For the same molecule, the Cures (Mus musculus [29]) was 5, the Cures (Mus musculus [10]) was 0 and the Cures (Mus musculus [11]) was 4. The Cures (Mus musculus [30]) was 5, the Cures (Mus musculus [13]) was 5 and the Cures (Mus musculus [31]) was 8. For the same molecule, the Cures (Plasmodium cynomolgi [23]) was 0, the Cures (Plasmodium cynomolgi [32]) was 2 and the Relapses (Plasmodium cynomolgi [33]) was 28. It also gave a Cures (Mus musculus [34]) of 1 and a Cures (Plasmodium cynomolgi [35]) of 1.
With `COc1cc(NC(C)CCCN)c2nccc(C)c2c1Oc1cccc(C(F)(F)F)c1` (stereo unspecified) the Cures (Plasmodium cynomolgi [36]) was 2, the Cures (Mus musculus [24]) was 1 and the Cures (Mus musculus [27]) was 5. It also gave a Cures (Plasmodium cynomolgi [37]) of 0, a Cures (Mus musculus [11]) of 5 and a Cures (Mus musculus [30]) of 5. The Toxic (Mus musculus [14]) was 4 and the Cures (Plasmodium cynomolgi [32]) was 2.
`COc1cc(NC(C)CCCN)c2nccc(CO)c2c1Oc1cccc(C(F)(F)F)c1` (stereo unspecified) was tested, and the Cures (Plasmodium cynomolgi [38]) was 0, the Toxic (Mus musculus [39]) was 2 and the “Delta MST” value (Mus musculus [5]) was 0.6. The Cures (Mus musculus [40]) was 3, the “Delta MST” value (Mus musculus [7]) was 1.4 and the Cures (Mus musculus [41]) was 3. The Toxic (Mus musculus [42]) was 7, the “Delta MST” value (Mus musculus [9]) was 3.6 and the Toxic (Mus musculus [43]) was 4. For the same molecule, the Cures (Mus musculus [13]) was 1, the Cures (Mus musculus [44]) was 10 and the “Delta MST” value (Mus musculus [45]) was 14.8. The Cures (Mus musculus [46]) was 0, the Cures (Mus musculus [47]) was 3 and the “Delta MST” value (Mus musculus [48]) was 13.1. For the same molecule, the Cures (Mus musculus [49]) was 14, the Cures (Mus musculus [50]) was 10 and the “Delta MST” value (Mus musculus [17]) was 3.8.
Molecule `CCc1ccnc2c(NC(C)CCCN)cc(OC)c(Oc3cccc(C(F)(F)F)c3)c12` (stereo unspecified) has a Cures (Plasmodium cynomolgi [36]) of 2, a Cures (Mus musculus [24]) of 1 and a Cures (Mus musculus [4]) of 5. For the same molecule, the “Delta MST” value (Mus musculus [5]) was 1.7, the Toxic (Mus musculus [18]) was 3 and the “Delta MST” value (Mus musculus [7]) was 5.3. It also gave a Cures (Mus musculus [27]) of 3, a Cures (Mus musculus [51]) of 6 and a Cures (Mus musculus [11]) of 5. The Cures (Mus musculus [30]) was 4, the Cures (Mus musculus [52]) was 2 and the Cures (Mus musculus [13]) was 4. For the same molecule, the Cures (Mus musculus [53]) was 5, the Relapses (Plasmodium cynomolgi [54]) was 20 and the Cures (Plasmodium cynomolgi [23]) was 0. It also gave a Cures (Plasmodium cynomolgi [32]) of 2.
For `C=Cc1ccnc2c(NC(C)CCCN)cc(OC)c(Oc3cccc(C(F)(F)F)c3)c12` (stereo unspecified), the Relapses (Plasmodium cynomolgi [1]) was 12 and 19, the “Delta MST” value (Mus musculus [55]) was 8.1 and the “Delta MST” value (Mus musculus [45]) was 3.7. The Cures (Plasmodium cynomolgi [16]) was 0 and the “Delta MST” value (Mus musculus [17]) was -0.1.
